Results: PubChem BioAssay (NCI)
Where “and” joins values, the source holds several entries; their conditions need not be identical. Identical values can stand only once.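 Tested at 5 concentrations; 48 h exposure; 96-well plates; endpoints linearly interpolated, else capped at highest concentration. Here, GI50 denotes the concentration required for 50% inhibition of growth. At the TGI there is no net growth.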

Experiments:
Experiment in all cases: NCI-60 cell line screen, 48 h
OVCAR-8 ovarian = tested on: OVCAR-8 ovarian
MCF7 breast = tested on: MCF7 breast
RXF 393 renal = tested on: RXF 393 renal
K-562 leukemia = tested on: K-562 leukemia
HCT-15 colon = tested on: HCT-15 colon
HT29 colon = tested on: HT29 colon
A549 NSCLC = tested on: A549 NSCLC
EKVX NSCLC = tested on: EKVX NSCLC
MALME-3M melanoma = tested on: MALME-3M melanoma
ACHN renal = tested on: ACHN renal

Cn1cc(-c2cc(-c3cn(C)c4ccccc34)[nH]n2)c2ccccc21
GI50 (OVCAR-8 ovarian): 28.8 µM
TGI (OVCAR-8 ovarian): > 100 µM
GI50 (MCF7 breast): 3.95 µM
TGI (MCF7 breast): > 100 µM
GI50 (RXF 393 renal): 14.7 µM
TGI (RXF 393 renal): 38.7 µM
GI50 (K-562 leukemia): 42.1 µM
TGI (K-562 leukemia): > 100 µM
GI50 (HCT-15 colon): 8.68 µM
TGI (HCT-15 colon): > 100 µM
GI50 (HT29 colon): 5.35 µM
TGI (HT29 colon): > 100 µM
GI50 (A549 NSCLC): 16.3 µM
TGI (A549 NSCLC): > 100 µM
GI50 (EKVX NSCLC): 27.2 µM
TGI (EKVX NSCLC): > 100 µM
GI50 (MALME-3M melanoma): 93.1 µM
TGI (MALME-3M melanoma): > 100 µM
GI50 (ACHN renal): 7.68 µM
TGI (ACHN renal): > 100 µM

S=c1ssnc1-c1cc2ccccc2o1
GI50 (OVCAR-8 ovarian): 11.3 µM
TGI (OVCAR-8 ovarian): 29.4 µM
GI50 (MCF7 breast): 9.55 µM
TGI (MCF7 breast): 32.1 µM
GI50 (RXF 393 renal): 7.78 µM
TGI (RXF 393 renal): 23.3 µM
GI50 (K-562 leukemia): 22.5 µM
TGI (K-562 leukemia): > 100 µM
GI50 (HCT-15 colon): 11.5 µM
TGI (HCT-15 colon): 25.5 µM
GI50 (HT29 colon): 14.3 µM
TGI (HT29 colon): 29.3 µM
GI50 (A549 NSCLC): 16.3 µM
TGI (A549 NSCLC): 32.1 µM
GI50 (EKVX NSCLC): 11.8 µM
TGI (EKVX NSCLC): 30.8 µM
GI50 (MALME-3M melanoma): 20.7 µM
TGI (MALME-3M melanoma): 46.8 µM
GI50 (ACHN renal): 15.2 µM
TGI (ACHN renal): 38.8 µM

N=C(N)c1ccc2oc3ccc(C(=N)N)cc3c(=O)c2c1
TGI (OVCAR-8 ovarian): > 100 µM
TGI (MCF7 breast): > 100 µM
TGI (RXF 393 renal): > 100 µM
TGI (K-562 leukemia): > 100 µM
TGI (HCT-15 colon): > 100 µM
TGI (HT29 colon): > 100 µM
TGI (A549 NSCLC): > 100 µM
TGI (MALME-3M melanoma): > 100 µM
TGI (ACHN renal): > 100 µM

CCSC[C@@H]1C[C@](O)(c2ccccc2)[C@@H](c2ccccc2)O1
GI50 (OVCAR-8 ovarian): > 100 µM
TGI (OVCAR-8 ovarian): > 100 µM
GI50 (MCF7 breast): 74.6 µM
TGI (MCF7 breast): > 100 µM
GI50 (RXF 393 renal): 76.2 µM
TGI (RXF 393 renal): > 100 µM
GI50 (K-562 leukemia): 12.3 µM
TGI (K-562 leukemia): > 100 µM
GI50 (HCT-15 colon): 82.1 µM
TGI (HCT-15 colon): > 100 µM
GI50 (HT29 colon): 69.6 µM
TGI (HT29 colon): > 100 µM
GI50 (A549 NSCLC): 82.9 µM
TGI (A549 NSCLC): > 100 µM
GI50 (EKVX NSCLC): 59.2 µM
TGI (EKVX NSCLC): > 100 µM
GI50 (MALME-3M melanoma): > 100 µM
TGI (MALME-3M melanoma): > 100 µM
GI50 (ACHN renal): > 88 µM
TGI (ACHN renal): > 100 µM

CCn1cc(C(=O)O)c(=O)c2cc(F)c(N3CCN(S(=O)(=O)c4ccc(Cl)cc4Cl)CC3)cc21
GI50 (OVCAR-8 ovarian): 3.3 µM
TGI (OVCAR-8 ovarian): 29 µM
GI50 (MCF7 breast): 2.95 µM
TGI (MCF7 breast): 15.2 µM
GI50 (RXF 393 renal): 2.08 µM
TGI (RXF 393 renal): 5.68 µM
GI50 (K-562 leukemia): 4 µM
TGI (K-562 leukemia): > 100 µM
GI50 (HCT-15 colon): 2.82 µM
TGI (HCT-15 colon): > 100 µM
GI50 (HT29 colon): 3.63 µM
TGI (HT29 colon): > 100 µM
GI50 (A549 NSCLC): 2.89 µM
TGI (A549 NSCLC): > 100 µM
GI50 (MALME-3M melanoma): 1.94 µM
TGI (MALME-3M melanoma): 4.17 µM
GI50 (ACHN renal): 2.62 µM
TGI (ACHN renal): 7.68 µM

CCCCCCCCCCCC/C=C\CC[C@@H](O)[C@H](O)CC[C@H](O)[C@@H]1CC[C@@H](CCCCCCCC2=C[C@H](C)OC2=O)O1
GI50 (OVCAR-8 ovarian): 8.16 µM
TGI (OVCAR-8 ovarian): 38 µM
GI50 (MCF7 breast): 4.76 µM
TGI (MCF7 breast): 34.6 µM
TGI (RXF 393 renal): 37.8 µM
TGI (K-562 leukemia): 30 µM
GI50 (HCT-15 colon): 8.86 µM
TGI (HCT-15 colon): 33.8 µM
GI50 (A549 NSCLC): 3.36 µM
TGI (A549 NSCLC): 23 µM
GI50 (EKVX NSCLC): 11.6 µM
TGI (EKVX NSCLC): 28.9 µM
TGI (MALME-3M melanoma): 31.2 µM
GI50 (ACHN renal): 4.35 µM
TGI (ACHN renal): 4.71 µM and 26.3 µM

O=c1c(I)c[nH]cc1I
GI50 (OVCAR-8 ovarian): > 100 µM
TGI (OVCAR-8 ovarian): > 100 µM
GI50 (MCF7 breast): > 100 µM
TGI (MCF7 breast): > 100 µM
GI50 (RXF 393 renal): > 100 µM
TGI (RXF 393 renal): > 100 µM
GI50 (K-562 leukemia): > 100 µM
TGI (K-562 leukemia): > 100 µM
GI50 (HCT-15 colon): > 100 µM
TGI (HCT-15 colon): > 100 µM
GI50 (HT29 colon): > 100 µM
TGI (HT29 colon): > 100 µM
GI50 (A549 NSCLC): > 100 µM
TGI (A549 NSCLC): > 100 µM
GI50 (EKVX NSCLC): > 100 µM
TGI (EKVX NSCLC): > 100 µM
GI50 (MALME-3M melanoma): > 100 µM
TGI (MALME-3M melanoma): > 100 µM
GI50 (ACHN renal): > 100 µM
TGI (ACHN renal): > 100 µM
